Assay results taken from US20260130933A1, “PHARMACEUTICAL COMPOSITION FOR PREVENTION OR TREATMENT OF NEPHROPATHY AND/OR DIABETES MELLITUS, COMPRISING ENAVOGLIFLOZIN” (DAEWOONG PHARMACEUTICAL CO., LTD., priority 2022, published 2026).

Test: Example 3: phase 3 trial, enavogliflozin 0.3 mg vs dapagliflozin 10 mg once a day for 24 weeks added to metformin and gemigliptin in patients with type 2 diabetes (same endpoints, rescue drug)
Type: in vivo, human
Details: week 12
Protocol: 1) when Metformin (≥1,000 mg/Day) was Administered at a Constant Dose for at Least 8 Weeks Prior to Pre-Visit (Pre-Screening) • Metformin (≥1,000 mg/day) and gemigliptin (50 mg/day) were co-administered during the 8-week stabilization period. […] 4) when Metformin (≥1,000 mg/Day) and Gemigliptin (50 mg/Day) were Co-Administered at Constant Doses for at Least 8 Weeks Prior to Pre-Visit (Prescreening) • Without a separate stabilization period, Pre-visit (pre-screening) was Visit 1 (screening).
Subjects who met the inclusion/exclusion criteria continued to receive metformin and gemigliptin while receiving a placebo of the clinical trial drug in a single-blind (subject-blinded) state for a 2-week run-in period.
Here, the randomized subjects were stratified according to the administration therapy (co-administration with two or less agents (one or two agents) or three or more agents) of a conventional hypoglycemic agent (before washout of another hypoglycemic agent) within 24 weeks prior to obtaining written informed consent and by an HbA1c value (<8% or ≥8%) at Visit 1 (screening) measured in the central laboratory.
The randomized subjects were administered two tablets of the clinical trial drug corresponding to each administration group once a day, and then visited the institution at weeks 6, 12, 18, and 24 during the 24-week administration period to conduct efficacy and safety assessments. In addition, during the clinical trial period, they were instructed to exercise regularly and control their diet without changing their daily life patterns.
• 1) Change in HbA1c at week 24 after administration of clinical trial drug compared to Visit 2 (randomization)
• 1) Change in HbA1c at each time point of weeks 6, 12, and 18 after administration of clinical trial drug compared to Visit 2 (randomization) • 2) Change in FPG at each time point of weeks 6, 12, 18, and 24 after administration of clinical trial drug compared to Visit 2 (randomization) • 3) Proportion of subjects achieving HbA1c<7% at each time point of weeks 6, 12, 18, and 24 after administration of clinical trial drug • 4) Proportion of subjects achieving HbA1c<6.5% at each time point of weeks 6, 12, 18, and 24 after administration of clinical trial drug • 5) Proportion of subjects achieving therapeutic response (HbA1c change (HbA1c at Visit 2—HbA1c at each evaluation time point)>0.5% or HbA1c<7% at each evaluation time point compared to Visit 2 (randomization)) at each time point of weeks 6, 12, 18, and 24 after administration of clinical trial drug • 6) Proportion of subjects achieving therapeutic response (HbA1c change (HbA1c at Visit 2—HbA1c at each evaluation time point)>0.7% or HbA1c<7% at each evaluation time point compared to Visit 2 (randomization)) at each time point of weeks 6, 12, 18, and 24 after administration of clinical trial drug • 7) Proportion of subjects achieving therapeutic response (HbA1c change (HbA1c at Visit 2—HbA1c at each evaluation time point)>1% or HbA1c<7% at each evaluation time point compared to Visit 2 (randomization)) at each time point of weeks 6, 12, 18, and 24 after administration of clinical trial drug

[1] = modified per-protocol set 2, enavogliflozin 0.3 mg, dapagliflozin 10 mg
[2] = per-protocol set, enavogliflozin 0.3 mg vs dapagliflozin 10 mg
[3] = per-protocol set, enavogliflozin 0.3 mg, dapagliflozin 10 mg

**Q.** What does the source list for `OC[C@H]1O[C@@H](c2cc(Cc3ccc(C4CC4)cc3)c(Cl)c3c2CCO3)[C@H](O)[C@@H](O)[C@@H]1O` [Enavogliflozin, (2S,3R,4R,5S,6R)-2-(7-chloro-6 (4-cyclopropylbenzyl)-2,3-dihydrobenzofuran-4-yl)-6-(hydroxymethyl)tetrahydro-2H-pyran-3,4,5-triol]?
**A.** Change from baseline in diastolic blood pressure, Mean (modified per-protocol set 2): −5.07 mmHg; Change from baseline in diastolic blood pressure, Median (modified per-protocol set 2): −5.00 mmHg; Diastolic blood pressure, Mean (modified per-protocol set 2): 71.61 mmHg; Diastolic blood pressure, Median (modified per-protocol set 2): 72.00 mmHg; Change from baseline in systolic blood pressure, ANCOVA LS mean difference (modified per-protocol set 2, enavogliflozin 0.3 mg vs dapagliflozin 10 mg): −1.37 mmHg; Change from baseline in systolic blood pressure, ANCOVA LS mean [1]: −6.43 mmHg; Change from baseline in systolic blood pressure, Mean [1]: −7.10 mmHg; Change from baseline in systolic blood pressure, Median [1]: −8.00 mmHg; Systolic blood pressure, Mean [1]: 120.73 mmHg; Systolic blood pressure, Median [1]: 121.00 mmHg; Adiponectin, Mean (per-protocol set): 7.13 µg/mL; Adiponectin, Median (per-protocol set): 6.24 µg/mL; Change from baseline in HOMA-IR, ANCOVA LS mean (per-protocol set): −1.11; Change from baseline in HOMA-IR, LS mean difference (enavogliflozin − dapagliflozin) (per-protocol set): −0.06; Change from baseline in HOMA-IR, Mean (per-protocol set): −1.16; Change from baseline in HOMA-IR, Median (per-protocol set): −0.79; Change from baseline in HOMA-β, ANCOVA LS mean (per-protocol set): 7.78; Change from baseline in HOMA-β, LS mean difference (enavogliflozin − dapagliflozin) (per-protocol set): 2.55; Change from baseline in HOMA-β, Mean (per-protocol set): 6.71; Change from baseline in HOMA-β, Median (per-protocol set): 4.80; Change from baseline in UACR, ANCOVA LS mean (per-protocol set): -15.12 g/kg; Change from baseline in UACR, LS mean difference (enavogliflozin − dapagliflozin) (per-protocol set): -3.35 g/kg; Change from baseline in UACR, Mean (per-protocol set): -18.62 g/kg; Change from baseline in UACR, Median (per-protocol set): -1.05 g/kg; Change from baseline in UGCR, ANCOVA LS mean (per-protocol set): 58.21 mg/mg; Change from baseline in UGCR, LS mean difference (enavogliflozin − dapagliflozin) (per-protocol set): 13.37 mg/mg; Change from baseline in UGCR, Mean (per-protocol set): 57.00 mg/mg; Change from baseline in UGCR, Median (per-protocol set): 57.05 mg/mg; Change from baseline in adiponectin, ANCOVA LS mean (per-protocol set): 0.89 µg/mL; Change from baseline in adiponectin, LS mean difference (enavogliflozin − dapagliflozin) (per-protocol set): 0.19 µg/mL; Change from baseline in adiponectin, Mean (per-protocol set): 0.88 µg/mL; Change from baseline in adiponectin, Median (per-protocol set): 1.00 µg/mL; Change from baseline in leptin, ANCOVA LS mean (per-protocol set): -1.97 ng/mL; Change from baseline in leptin, LS mean difference (enavogliflozin − dapagliflozin) (per-protocol set): -0.28 ng/mL; Change from baseline in leptin, Mean (per-protocol set): -1.96 ng/mL; Change from baseline in leptin, Median (per-protocol set): -1.28 ng/mL; HOMA-IR (insulin resistance), Mean (per-protocol set): 1.76; HOMA-IR (insulin resistance), Median (per-protocol set): 1.46; HOMA-β (beta-cell function), Mean (per-protocol set): 49.46; HOMA-β (beta-cell function), Median (per-protocol set): 41.50; Leptin, Mean (per-protocol set): 8.56 ng/mL; Leptin, Median (per-protocol set): 5.74 ng/mL; UACR, Mean (per-protocol set): 29.37 g/kg; UACR, Median (per-protocol set): 11.20 g/kg; UGCR, Mean (per-protocol set): 57.71 mg/mg; UGCR, Median (per-protocol set): 57.43 mg/mg; Achieving HbA1c target of <6.5%, odds ratio (logistic regression model) [2]: 1.44; Achieving HbA1c target of <7%, odds ratio (logistic regression model) [2]: 1.20; Change from baseline in FPG, ANCOVA LS mean difference [2]: -2.75 mg/dL; Change from baseline in HbA1c, ANCOVA LS mean difference [2]: −0.04 % p; Change from baseline in body weight, ANCOVA LS mean difference [2]: -0.01 kg; Change from baseline in fasting C-peptide, ANCOVA LS mean difference [2]: -0.02 ng/mL; Therapeutic glycemic response 1, odds ratio (logistic regression model) [2]: 1.09; Therapeutic glycemic response 2, odds ratio (logistic regression model) [2]: 1.30; Therapeutic glycemic response 3, odds ratio (logistic regression model) [2]: 1.31; Body weight, Mean [3]: 66.54 kg; Change from baseline in FPG, ANCOVA LS mean [3]: -27.17 mg/dL; Change from baseline in FPG, Mean [3]: -27.47 mg/dL; Change from baseline in FPG, Median [3]: -25.00 mg/dL; Change from baseline in HbA1c, ANCOVA LS mean [3]: −0.87 % p; Change from baseline in HbA1c, Mean [3]: −0.89 % p; Change from baseline in HbA1c, Median [3]: −0.75 % p; Change from baseline in body weight, ANCOVA LS mean [3]: -2.72 kg; Change from baseline in body weight, Mean [3]: -2.65 kg; Change from baseline in body weight, Median [3]: -2.90 kg; Change from baseline in fasting C-peptide, ANCOVA LS mean [3]: -0.09 ng/mL; Change from baseline in fasting C-peptide, Mean [3]: -0.09 ng/mL; Change from baseline in fasting C-peptide, Median [3]: -0.10 ng/mL; FPG, Mean [3]: 112.29 mg/dL; FPG, Median [3]: 110.00 mg/dL; Fasting C-peptide, Mean [3]: 0.64 ng/mL; Fasting C-peptide, Median [3]: 0.63 ng/mL; HbA1c, Mean [3]: 6.90%
